Assay: Oxidation reducing capability for glyoxal by hydrogen peroxide-luminol chemiluminescence
Details: added to 1.0 mM, 10.0 mM and 100.0 mM glyoxal; compared to Comparative Example 1; n=3
Procedure: At the elapse of 30 seconds, 1000 μl of hydrogen peroxide was further mixed therein. Then, the chemiluminescence (CL) count (number of photons) was identified continuously for 150 seconds. Measurement was initiated when the CL counts came to 200 s per second (total time: 180 seconds). For the confirmation and measurement of the CL counts, a CL analyzer (product of TOHOKU ELECTRONIC INDUSTRIAL CO., LTD.) was employed. Using the dialysis solution preparation water of Example 1 and Comparative Example 1 obtained in Experiment 1, an evaluation experiment on the oxidation reducing capability for glyoxal was conducted. An evaluation experiment (n=3) employing hydrogen peroxide-luminol chemiluminescence similar to that of Experiment 1 was carried out, provided that the test liquid used was prepared by adding 45 μl of each dialysis solution preparation water into 45 μl of glyoxal with the concentration of 1.0 mM, 10.0 mM and 100.0 mM such that the total amount of the test liquid was 90 μl. For a reference example, a similar experiment (n=3) was carried out employing ascorbic acid (well known as a free radical scavenge substance). The test liquid was prepared such that the ascorbic acid was added to attain 1.0 μg/ml for […].

In the case of `O=C1O[C@H]([C@@H](O)CO)C(O)=C1O` [ascorbic acid], the CL total count is reported as “reduced significantly”.

Reference: patent publication US20090045121A1, “Dialysis Solution Preparation Water, Dialysis Solution Using Such Water, Method of Producing Dialysis Solution, and Dialysis Equipment” (priority 2006, published 2009)
